According to paper PMC4199632, “Exploring the Anti-Cancer Activity of Novel Thiosemicarbazones Generated through the Combination of Retro-Fragments: Dissection of Critical Structure-Activity Relationships” (PLoS ONE, 2014):

Tests used:
[1] = tested on: HeLa cervical carcinoma cells; test: Proliferation assay (crystal violet, 72 h); assay type: cell-based; details: Homo sapiens, 72 h incubation, mean ±SD (3 experiments)
Method: (§1) The human cancer cell types (neuroepithelioma (SK-N-MC), colon cancer (HCT116 with wild-type p53 (p53^+/+)), Burkitt's lymphoma (Raji) and cervical carcinoma (HeLa)) cells and normal human dermal fibroblasts (NHDF) were obtained from the American Type Culture Collection (ATCC, Manassas, VA, USA). HCT116 null p53 (p53^−/−) cells were obtained from the Maria Sklodowska-Curie Memorial Cancer Center and Institute of Oncology, Poland.
(§2) The SK-N-MC cells were cultured in minimum essential medium (MEM; Life Technologies, Grand Island, New York, USA) containing 10% (v/v) fetal bovine serum (FBS; Life Technologies), 1 mM sodium pyruvate (Life Technologies), 1% (v/v) non-essential amino acids (Life Technologies), 2 mM L-glutamine (Life Technologies), 100 U/mL penicillin (Life Technologies), 100 µg/mL streptomycin (Life Technologies) and 0.28 µg/mL fungizone (Bristol Myers Squibb Pharmaceuticals, Montreal, Canada). The HCT116 and NHDF cells were grown in Dulbecco's modified Eagle's medium (DMEM; Sigma-Aldrich) supplemented with 12% (v/v) heat-inactivated FBS (HCT116; Life Technologies) or 15% (v/v) FBS (NHDF; Life Technologies), 100 µg/mL of gentamicin (Polfa Warszawa S.A., Warsaw, Poland), 100 µg/mL of streptomycin (Polfa) and 100 U/mL of penicillin (Polfa). The Raji and HeLa cells were cultured in Roswell Park Memorial Institute medium (RPMI-1640; Sigma-Aldrich) with the addition of 10% (v/v) heat-inactivated FBS (Life Technologies) and the supplements described for SK-N-MC cells above. All cell lines were cultured under standard conditions at 37°C in a humidified atmosphere at 5% CO2 and were subcultured every 3–4 days as required.
(§3) The cells were seeded in 96-well plates (SK-N-MC: 1.5×10^4 cells/well; HeLa: 5.0×10^3 cells/well; Raji: 3.0×10^3 cells/well; HCT116: 3.5×10^3 cells/well; NHDF: 3.0×10^3 cells/well) 24 h prior to the addition of the novel compounds. The assays were performed using a 72 h (SK-N-MC, Raji, HeLa) or 96 h (HCT 116, NHDF) incubation period with the agents at 37°C. […] Additionally, DFO and Dp44mT were included as positive controls in all experiments as their activity is well characterized, [42], [50].
(§4) Chelator stock solutions were prepared in DMSO and diluted in media so that the final [DMSO] <0.05%. The results were expressed as a percentage of the control and the resulting IC50 values were calculated using GraphPad Prism 5 (GraphPad Software, Inc., La Jolla, CA, USA). The IC50 was defined as the concentration necessary to reduce the absorbance to 50% of the untreated control. Each individual compound was tested in triplicate in a single experiment, with each experiment being repeated three times. After incubation of HCT 116 and NHDF cells with the tested compounds, 20 µL of the CellTiter 96 Aqueous One Solution - MTS (Promega, Madison, WI, USA) solution was added to each well (with 100 µL of DMEM without phenol red) and incubated for 1 h/37°C. The optical density of the samples was analyzed at 490 nm.
(§5) MTT (3-[4,5-dimethylthiazol-2-yl]-2,5-diphenyltetrazolium bromide) was used to evaluate the anti-proliferative effects of the chelators in SK-N-MC and Raji cells. Following incubation with the investigated compounds, 10 µL of MTT (5 mg/mL in PBS; Sigma-Aldrich) was added to each well. After a 2 h (SK-N-MC) or 4 h (Raji) incubation, the plates were centrifuged, and the cells were lysed with 100 µL of 10% SDS-50% isobutanol in 0.01 M HCl (SK-N-MC) or DMSO (Raji). The absorbance was measured at 570 nm. The anti-proliferative effects of these novel agents on HeLa cells were estimated using crystal violet staining (0.5% crystal violet solution for 10 min). Finally, the wells were rinsed with water and the cells were lysed with 2% SDS. The optical density of the samples was analyzed at 595 nm.

[2] = tested on: SK-N-MC cells; test: Mobilization of cellular 59Fe (59Fe efflux); assay type: cell-based, human; details: chelator 25 µM; for 59Fe mobilization (% of cellular 59Fe released): 3 h/37°C, prelabeled SK-N-MC cells, control medium 4±1%
Method: (§6) The iron transport protein, Tf (Sigma-Aldrich), was labeled with ^59Fe (PerkinElmer Life and Analytical Sciences, Boston, MA) to form ^59Fe2-Tf using standard methods, [7]. Unbound ^59Fe was removed by passage through a Sephadex G25 column and was followed by exhaustive dialysis, [7].
To examine the ability of the novel chelators to mobilize ^59Fe from SK-N-MC cells, ^59Fe efflux experiments were performed using established techniques, [51]. The monolayer of SK-N-MC cells was prelabeled for 3 h at 37°C in MEM containing ^59Fe2-Tf (0.75 µM). Cells were then washed four times with ice-cold PBS and incubated for a further 3 h at 37°C with medium alone (the control) or medium containing the chelator (25 µM). After this incubation, the overlying medium that contained the released ^59Fe was separated from the cells using a Pasteur pipette. Radioactivity was measured in both the cells and supernatant using a γ-scintillation counter (Wallac Wizard 3, Turku, Finland). In these studies, the novel ligands were compared to the previously characterized chelators, DFO and Dp44mT, as their ability to mobilize cellular ^59Fe has been extensively examined in these cells, [12], [17], [18], [50].
Figure 6 Effect of (A) series 1, (B) series 2, (C) series 3, (D) series 4, (E) series 5 and (F) series 6 chelators, relative to the controls DFO and Dp44mT, on ^59Fe mobilization from prelabeled SK-N-MC cells. Cells were incubated for 3 h/37°C with ^59Fe-transferrin (0.75 µM), washed 4 times with ice-cold PBS and then reincubated for 3 h/37°C in the presence or absence of the chelators (25 µM). Release of ^59Fe was then assessed using a γ-scintillation counter. Results are mean ±SD (3 experiments).

[3] = tested on: normal human dermal fibroblast (NHDF) cells; test: Proliferation assay (MTS, 96 h), normal mortal cells; assay type: cell-based; details: Homo sapiens, NHDF, 96 h, 96 h incubation, mean ±SD (3 experiments)
Method: as §1, §2, §3, §4

[4] = tested on: SK-N-MC neuroepithelioma cells; test: Proliferation assay (MTT, 72 h); assay type: cell-based; details: Homo sapiens, 72 h incubation, mean ±SD (3 experiments)
Method: as §1, §2, §3, §4, §5

[5] = tested on: Raji Burkitt's lymphoma cells; test: Proliferation assay (MTT, 72 h); assay type: cell-based; details: Homo sapiens, 72 h incubation, mean ±SD (3 experiments)
Method: as §1, §2, §3, §4, §5

[6] = tested on: HCT116 p53+/+ colon cancer cells; test: Proliferation assay (MTS, 96 h); assay type: cell-based, human; details: Homo sapiens, HCT-116; 96 h incubation, MTS; mean ±SD (3 experiments)
Method: as §1, §2, §3, §4

[7] = tested on: HCT116 p53−/− colon cancer cells; test: Proliferation assay (MTS, 96 h); assay type: cell-based, human; details: Homo sapiens, HCT-116, 96 h, 96 h incubation, MTS; mean ±SD (3 experiments)
Method: as §1, §2, §3, §4

[8] = tested on: SK-N-MC cells; test: Inhibition of cellular 59Fe uptake from 59Fe2-Tf; assay type: cell-based, human; details: chelator 25 µM
Method: as §6
The ability of the chelators to prevent the cellular uptake of ^59Fe from ^59Fe2-Tf was examined using standard methods, [14], [17], [18], [50]. A monolayer of SK-N-MC cells was incubated with medium containing ^59Fe2-Tf (0.75 µM) and the chelator (25 µM) for 3 h at 37°C. The medium was then removed and the cells were washed four times with ice-cold PBS. The cells were then incubated for 30 min at 4°C with the general protease, Pronase (1 mg/mL; Sigma-Aldrich), to remove membrane-bound ^59Fe. The cells were removed using a plastic spatula and centrifuged at 14,000 rpm/1 min to separate internalized from membrane-bound ^59Fe. The cell pellet was resuspended in 1 mL of PBS and the internalized ^59Fe was measured on a γ-scintillation counter. Internalized ^59Fe uptake was calculated as a percentage of the control (medium alone). Again, the novel ligands were compared to DFO and Dp44mT as their ability to inhibit cellular ^59Fe uptake has been extensively characterized using SK-N-MC cells, [14], [17], [18], [50].
Figure 8 Effect of (A) series 1, (B) series 2, (C) series 3, (D) series 4, (E) series 5 and (F) series 6 chelators, relative to the controls DFO and Dp44mT, on ^59Fe uptake from ^59Fe-transferrin by SK-N-MC cells. Cells were incubated for 3 h/37°C with ^59Fe-transferrin (0.75 µM) in the presence or absence of the chelators (25 µM). At the end of this incubation, cells were washed 4 times with ice-cold PBS. Internalization of ^59Fe was assessed by incubation for 30 min/4°C with the protease, Pronase (1 mg/mL). Cellular ^59Fe was then assessed using a γ-scintillation counter. Results are mean ±SD (3 experiments).

[9] = design: method as in PMID 17851637, PMID 18217206, PMID 15148626; details: clinical trials; cited from earlier work

Structure (SMILES)	IC50 [1]	IC50 [4]	IC50 [5]	IC50 [6]	IC50 [7]	melting point	59Fe mobilization (% of cellular 59Fe released) [2]	IC50 [3]	Inhibition of 59Fe uptake compared with controls [8]	59Fe mobilization efficacy compared with controls ([2]; SK-N-MC cells)	Side effects upon administration [9]	Internalized 59Fe uptake from 59Fe2-Tf (% of the control) ([8]; 59Fe2-Tf 0.75 µM, 3 h/37°C)
S=C(N/N=C/c1ccc2ccccc2n1)N1CCN(c2ccccn2)CC1 [2d]	5.14 ± 2.87 µM	0.52 ± 0.16 µM	0.05 ± 0.02 µM	0.39 ± 0.15 µM	0.27 ± 0.16 µM	–	–	0.032 ± 0.008 µM	comparable inhibition of ^59Fe uptake to that of DFO	comparable release of ^59Fe relative to DFO	–	–
NC(=S)NN=Cc1ncccc1N [Triapine, 3-aminopyridine-2-carboxaldehyde thiosemicarbazone]	–	–	–	–	–	–	–	–	–	–	methemoglobin formation and hypoxia	–
Oc1ccccc1/C=N/NC(=S)N1CCN(c2ccccc2)CC1 [6b]	5.8 ± 0.48 µM	5.13 ± 0.51 µM	1.96 ± 0.85 µM	6.9 ± 2.3 µM	8.86 ± 1.46 µM	206 to 207 °C	–	13.5 ± 4.8 µM	–	–	–	–

Now from value to molecule, other results behind:

IC50 [1]	IC50 [4]	IC50 [5]	IC50 [6]	IC50 [7]	melting point	Structure (SMILES)	59Fe mobilization (% of cellular 59Fe released) [2]	IC50 [3]	Inhibition of 59Fe uptake compared with controls [8]	59Fe mobilization efficacy compared with controls ([2]; SK-N-MC cells)	Side effects upon administration [9]	Internalized 59Fe uptake from 59Fe2-Tf (% of the control) ([8]; 59Fe2-Tf 0.75 µM, 3 h/37°C)
11.3 ± 1.6 µM	5.09 ± 0.47 µM	3.35 ± 1.11 µM	20.2 ± 0.3 µM	20.3 ± 0.9 µM	–	CCN1CCN(C(=S)N/N=C/c2c(O)ccc3cccnc23)CC1 [4a]	31–39%	12.1 ± 4.2 µM	–	–	–	–
2.21 ± 0.47 µM	1.21 ± 0.35 µM	0.003 ± 0.004 µM	0.014 ± 0.005 µM	0.014 ± 0.006 µM	–	S=C(NN=C(c1ccccn1)c1ccccn1)N1CCOCC1 [1c]	31–39%	0.016 ± 0.006 µM	–	–	–	3.6–11.5%
10.2 ± 1.2 µM	4.97 ± 0.95 µM	3.53 ± 1.87 µM	20.1 ± 0.3 µM	19.8 ± 4.9 µM	–	Oc1ccc2cccnc2c1/C=N/NC(=S)N1CCOCC1 [4c]	31–39%	> 25 µM	–	–	–	–
